Laboratory results published in US8940896B2, “Tetra-cyclic carboline derivatives useful in the inhibition of angiogenesis” (PTC Therapeutics, Inc., priority 2004, dated 2015).

Tested on: VEGF
Assay: Hypoxia-inducible endogenous VEGF expression, VEGF ELISA assay
Assay type: cell-based
Conditions: HeLa cells, hypoxic conditions (1% O2, 5% CO2), VEGF in conditioned media
Protocol: The ability of the compounds of the invention to modulate hypoxia-inducible endogenous VEGF expression may be analyzed as follows. VEGF protein levels may be monitored by an ELISA assay (R&D Systems). Briefly, HeLa cells may be cultured for 24-48 hours under hypoxic conditions (1% O2, 5% CO2, balanced with nitrogen) in the presence or absence of a compound of the invention. The conditioned media may then be assayed by ELISA, and the concentration of VEGF calculated from the standard ELISA curve of each assay.
A dose-response analysis may be performed using the ELISA assay and conditions described above. The conditions for the dose-response ELISA are analogous to those described above. A series of, e.g., seven different concentrations may be analyzed. In parallel, a dose-response cytotoxicity assay may be performed using CellTiter Glo (Promega) under the same conditions as the ELISA to ensure that the inhibition of VEGF expression was not due to the cytotoxicity. Dose-response curves may be plotted using percentage inhibition versus concentration of the compound, and EC50 and CC50 values may be generated for each compound with the maximal inhibition set as 100% and the minimal inhibition as 0%.

Row | SMILES | EC50 (Homo sapiens, HeLa) | EC50
1 | CN1C(=O)C2Cc3c([nH]c4ccccc34)C(c3cccc(Cl)c3Cl)N2C1=S (stereo not drawn) [Compound 75] | > 1000 nM | 
2 | O=C1C2Cc3c([nH]c4ccc(Br)cc34)C(c3ccc(OCCN4CCCCC4)cc3)N2C(=S)N1C1CCCCC1 (stereo not drawn) [Compound 26] | 40 to 200 nM | 
3 | CCCN1C(=O)C2Cc3c([nH]c4ccc(Br)cc34)C(c3ccc(OCCN4CCOCC4)cc3)N2C1=S (stereo not drawn) [Compound 102] | 8 to 40 nM | 
4 | COCCOc1ccc(C2c3[nH]c4ccc(Br)cc4c3CC3C(=O)N(C4CCCCC4)C(=S)N32)cc1 (stereo not drawn) [Compound 111] | < 8 nM | 
5 | COCCN1C(=O)C2Cc3c([nH]c4ccccc34)C(c3ccc(OC)cc3)N2C1=S (stereo not drawn) [Compound 59] | > 1000 nM | 
6 | COc1ccc(C2c3[nH]c4ccc(Br)cc4c3CC3C(=O)N(C4CCCCC4)C(=S)N32)cc1 (stereo not drawn) [Compound 27] |  | < 8 nM
7 | COc1cccc(C2c3[nH]c4ccc(Br)cc4c3CC3C(=O)N(C4CCCCC4)C(=S)N32)c1 (stereo not drawn) [Compound 28] | 8 to 40 nM | 
8 | COc1ccc(C2c3[nH]c4ccc(Br)cc4c3CC3C(=O)N(c4ccc([N+](=O)[O-])cc4)C(=S)N32)cc1 (stereo not drawn) [Compound 176] | < 8 nM | 
9 | COc1ccc(C2c3[nH]c4ccccc4c3CC3C(=O)N(C4CCCC4)C(=S)N32)cc1 (stereo not drawn) [Compound 13] | 40 to 200 nM | 
10 | COc1ccc(C2c3[nH]c4ccc(Br)cc4c3CC3C(=O)N(c4ccc5c(c4)OCO5)C(=S)N32)cc1 (stereo not drawn) [Compound 179] | < 8 nM | 
11 | O=C1C2Cc3c([nH]c4ccc(Br)cc34)C(c3ccc(OCCN4CCOCC4)cc3)N2C(=S)N1C1CCCCC1 (stereo not drawn) [Compound 115] | < 8 nM | 
12 | COc1cccc(C2c3[nH]c4ccc(Br)cc4c3CC3C(=O)N(C4CCCC4)C(=S)N32)c1 (stereo not drawn) [Compound 20] | < 8 nM | 
13 | C=CCN1C(=O)C2Cc3c([nH]c4ccccc34)C(c3cccc(Cl)c3)N2C1=S (stereo not drawn) [Compound 67] | > 1000 nM | 
14 | COC(=O)c1cccc(N2C(=O)C3Cc4c([nH]c5ccccc45)C(c4ccc(OC)cc4)N3C2=S)c1 (stereo not drawn) [Compound 51] | > 1000 nM | 
15 | COc1ccc(C2c3[nH]c4ccc(Br)cc4c3CC3C(=O)N(c4cccc(OC)c4)C(=S)N32)cc1 (stereo not drawn) [Compound 142] | < 8 nM | 
16 | COc1cc(C2c3[nH]c4ccccc4c3CC3C(=O)N(C)C(=S)N32)cc(OC)c1O (stereo not drawn) [Compound 71] | > 1000 nM | 
17 | COc1ccc(C2c3[nH]c4ccc(Br)cc4c3CC3C(=O)N(C4CCCCC4)C(=S)N32)cc1 (stereo not drawn) [Compound 185] |  | < 8 nM

Row | SMILES | EC50 (Homo sapiens, HeLa) | EC50
18 | COC(=O)c1cccc(N2C(=O)C3Cc4c([nH]c5ccc(Br)cc45)C(c4ccc(OC)cc4)N3C2=S)c1 (stereo not drawn) [Compound 140] | < 8 nM | 
19 | COc1ccccc1C1c2[nH]c3ccccc3c2CC2C(=O)N(C3CCCCC3)C(=S)N21 (stereo not drawn) [Compound 87] | > 1000 nM | 
20 | CN1C(=O)C2Cc3c([nH]c4ccccc34)C(c3cccc(Cl)c3)N2C1=S (stereo not drawn) [Compound 58] | > 1000 nM | 
21 | O=C1C2Cc3c([nH]c4ccc(Br)cc34)C(c3ccc(F)cc3)N2C(=S)N1C1CCCCC1 (stereo not drawn) [Compound 10] | 8 to 40 nM | 
22 | O=C1C2Cc3c([nH]c4ccc(Br)cc34)C(c3ccc4c(c3)OCO4)N2C(=O)N1C1CCCCC1 (stereo not drawn) [Compound 29] | 8 to 40 nM | 
23 | CN1C(=O)C2Cc3c([nH]c4ccc(Br)cc34)C(c3ccc(OCCN4CCOCC4)cc3)N2C1=S (stereo not drawn) [Compound 100] | 8 to 40 nM | 
24 | CCN(CC)CCCOc1ccc(C2c3[nH]c4ccc(Br)cc4c3CC3C(=O)N(c4ccc(Cl)cc4)C(=S)N32)cc1 (stereo not drawn) [Compound 193] | 8 to 40 nM | 
25 | COCCCN1C(=O)C2Cc3c([nH]c4ccc(Br)cc34)C(c3ccc(OCCN4CCOCC4)cc3)N2C1=S (stereo not drawn) [Compound 105] | 8 to 40 nM | 
26 | COc1ccccc1C1c2[nH]c3ccccc3c2CC2C(=O)N(C(C)C)C(=S)N21 (stereo not drawn) [Compound 86] | > 1000 nM | 
27 | O=C1C2Cc3c([nH]c4ccc(Br)cc34)C(c3ccc(OCCCN4CCCC4)cc3)N2C(=S)N1c1ccc(Cl)cc1 (stereo not drawn) [Compound 189] | 8 to 40 nM | 
28 | CCN1C(=O)C2Cc3c([nH]c4ccc(Br)cc34)C(c3ccc(OCCN4CCOCC4)cc3)N2C1=S (stereo not drawn) [Compound 101] | < 8 nM | 
29 | O=C1C2Cc3c([nH]c4ccc(Br)cc34)C(c3ccc(OCCCN4CCSCC4)cc3)N2C(=S)N1c1ccc(Cl)cc1 (stereo not drawn) [Compound 196] | < 8 nM | 
30 | COc1ccc(C2c3[nH]c4ccc(Br)cc4c3CC3C(=O)N(c4ccc(Cl)c(C(F)(F)F)c4)C(=S)N32)cc1 (stereo not drawn) [Compound 173] | < 8 nM | 
31 | COc1ccc(C2c3[nH]c4ccccc4c3CC3C(=O)N(c4cccc(F)c4)C(=S)N32)cc1 (stereo not drawn) [Compound 43] | 200 to 1000 nM | 
32 | COc1ccc(C2c3[nH]c4ccccc4c3CC3C(=O)N(C(C)(C)C)C(=S)N32)cc1 (stereo not drawn) [Compound 70] | > 1000 nM | 
33 | COc1ccccc1C1c2[nH]c3ccccc3c2CC2C(=O)N(c3cccc(F)c3)C(=S)N21 (stereo not drawn) [Compound 92] | > 1000 nM | 

Continued, values first:

Row | EC50 (Homo sapiens, HeLa) | EC50 | SMILES
34 | < 8 nM |  | COc1ccc(C2c3[nH]c4ccc(Br)cc4c3CC3C(=O)N(c4ccc(F)cc4F)C(=S)N32)cc1 (stereo not drawn) [Compound 172]
35 | < 8 nM |  | Cc1ccc(N2C(=O)C3Cc4c([nH]c5ccc(Br)cc45)C(c4ccc(C(C)C)cc4)N3C2=S)cc1 (stereo not drawn) [Compound 96]
36 | < 8 nM |  | CC(C)N1C(=O)C2Cc3c([nH]c4ccc(Br)cc34)C(c3ccc(N4CCOCC4)cc3)N2C1=S (stereo not drawn) [Compound 127]
37 | < 8 nM |  | COc1ccc(C2c3[nH]c4ccc(Br)cc4c3CC3C(=O)N(c4cccnc4)C(=S)N32)cc1 (stereo not drawn) [Compound 99]
38 | 200 to 1000 nM |  | CC(C)N1C(=O)C2Cc3c([nH]c4ccc(Cl)cc34)C(c3ccc(-c4ccncc4)cc3)N2C1=O (stereo not drawn) [Compound 125]
39 | 40 to 200 nM |  | COC(=O)CN1C(=O)C2Cc3c([nH]c4ccc(Br)cc34)C(c3ccc(OC)cc3)N2C1=S (stereo not drawn) [Compound 136]
40 | 40 to 200 nM |  | COc1ccc(C2c3[nH]c4ccc(Br)cc4c3CC3C(=O)N(c4ccccc4Cl)C(=S)N32)cc1 (stereo not drawn) [Compound 164]
41 | 8 to 40 nM |  | CC(C)N1C(=O)C2Cc3c([nH]c4ccc(Br)cc34)C(c3ccc(N4CCN(C)CC4)cc3)N2C1=S (stereo not drawn) [Compound 129]
42 | 200 to 1000 nM |  | COc1ccc(C2c3[nH]c4ccc(C)cc4c3CC3C(=O)N(C4CCCCC4)C(=O)N32)cc1 (stereo not drawn) [Compound 45]
43 | < 8 nM |  | COc1ccc(C2c3[nH]c4ccc(Br)cc4c3CC3C(=O)N(c4cccc(Cl)c4)C(=S)N32)cc1 (stereo not drawn) [Compound 165]
44 | 200 to 1000 nM |  | CC(C)N1C(=O)C2Cc3c([nH]c4ccc(Cl)cc34)C(c3ccc(-c4cncnc4)cc3)N2C1=O (stereo not drawn) [Compound 126]
45 | < 8 nM |  | CC(C)N1C(=O)C2Cc3c([nH]c4ccc(Br)cc34)C(c3ccc(OCCCN4CCCC4)cc3)N2C1=S (stereo not drawn) [Compound 150]
46 | 40 to 200 nM |  | CC(C)N1C(=O)C2Cc3c([nH]c4ccc(Br)cc34)C(c3ccc(-c4cncnc4)cc3)N2C1=O (stereo not drawn) [Compound 121]
47 | < 8 nM |  | CCOC(=O)CC(C)N1C(=O)C2Cc3c([nH]c4ccc(Br)cc34)C(c3ccc(OC)cc3)N2C1=S (stereo not drawn) [Compound 145]
48 | 8 to 40 nM |  | CC(C)NCCCOc1ccc(C2c3[nH]c4ccc(Br)cc4c3CC3C(=O)N(c4ccc(Cl)cc4)C(=S)N32)cc1 (stereo not drawn) [Compound 194]
49 | 8 to 40 nM |  | COCCOc1ccc(C2c3[nH]c4ccc(Cl)cc4c3CC3C(=O)N(C(C)C)C(=S)N32)cc1 (stereo not drawn) [Compound 108]
50 | 8 to 40 nM |  | CC(C)N1C(=O)C2Cc3c([nH]c4ccc(Br)cc34)C(c3ccc(OCCCN4CCOCC4)cc3)N2C1=S (stereo not drawn) [Compound 153]
51 | < 8 nM |  | COc1ccc(C2c3[nH]c4ccc(Br)cc4c3CC3C(=O)N(c4cccc(C)c4)C(=S)N32)cc1 (stereo not drawn) [Compound 170]
52 | 200 to 1000 nM |  | CC(C)N1C(=O)C2Cc3c([nH]c4ccc(Br)cc34)C(c3ccc(-c4ccncc4)cc3)N2C1=O (stereo not drawn) [Compound 120]
53 | < 8 nM |  | COCCOc1ccc(C2c3[nH]c4ccc(Cl)cc4c3CC3C(=O)N(C)C(=S)N32)cc1 (stereo not drawn) [Compound 107]
54 | 40 to 200 nM |  | CC(C)N1C(=O)C2Cc3c([nH]c4ccc(Cl)cc34)C(c3ccc(-n4ccnc4)cc3)N2C1=S (stereo not drawn) [Compound 132]
55 | < 8 nM |  | CC(C)N1C(=O)C2Cc3c([nH]c4ccc(Br)cc34)C(c3ccc(OCCN4CCOCC4)cc3)N2C1=S (stereo not drawn) [Compound 103]
56 | < 8 nM |  | CCN(CC)CCCOc1ccc(C2c3[nH]c4ccc(Br)cc4c3CC3C(=O)N(C(C)C)C(=S)N32)cc1 (stereo not drawn) [Compound 154]
57 | < 8 nM |  | COc1ccc(C2c3[nH]c4ccc(Br)cc4c3CC3C(=O)N(Cc4ccc(Cl)cc4)C(=S)N32)cc1 (stereo not drawn) [Compound 201]
58 | 40 to 200 nM |  | CC(C)N1C(=O)C2Cc3c([nH]c4ccc(Br)cc34)C(c3ccc(OCCCN4CCSCC4)cc3)N2C1=S (stereo not drawn) [Compound 157]
59 | 40 to 200 nM |  | COc1ccc(C2c3[nH]c4ccc(Br)cc4c3CC3C(=O)N(c4ccc(F)cc4Cl)C(=S)N32)cc1 (stereo not drawn) [Compound 174]
60 | < 8 nM |  | CC(C)N1C(=O)C2Cc3c([nH]c4ccc(Br)cc34)C(c3ccc(OCCCN4CCN(C)CC4)cc3)N2C1=S (stereo not drawn) [Compound 159]
